SMILES strings stand for the structures.

These results are taken from ChEMBL document CHEMBL3507680, “University of Dundee, Gates Library screen for HepG2 cell viability”.

The nature of this data set: Human HepG2 cell viability assay in 384 well format. Type of data set: toxicity, cell-based. On the set-up: dose 125 nL, time 70.5 hour; cytotoxicity at 70.5 h: concentration not given beside the values. The settings on record: HepG2 cells, read-out: Inhibition.
Regarding `O=C(c1ccncc1F)N1Cc2nc(CN3CCCCC3)oc2C1`, the cytotoxicity at 70.5 h is -8.64%.
On to `CCCOCC(=O)Nc1ncc(I)cc1C`, for which the cytotoxicity at 70.5 h turned out to be 4.92%.
As for `CN(C)S(=O)(=O)NCC1OCCc2cn(CC3CCOCC3)nc21` (centres undefined), the figure is 13.8%.
The result for `CCc1ncncc1C(=O)N1CCCN(Cc2ccc(C#N)cc2)CC1` reads -10.9%.
As for `F[C@@H]1CN(CC2CCCCC2)C[C@@H]1OCc1nc2ccccc2o1`, the figure is 1.33%; as for `O=C(NCc1nc[nH]n1)c1cc(COc2ccccc2F)[nH]n1`, -3.89%.
Consider `O=C1CC[C@H]2CN(c3ncc(F)cn3)CC[C@H]2N1CCc1c[nH]cn1`, for which the cytotoxicity at 70.5 h was -8.52%.
For `CCCOc1cc(C)ccc1NC(=O)NCCNC(C)=O`, the cytotoxicity at 70.5 h stood at 3.53%.
The result for `C[C@@H](N)C(=O)N1CCC(c2[nH]ncc2-c2ccccc2)CC1` reads -8.76%; that for `CSCc1noc(CN(C)C(C)c2nc(C)sc2C)n1` (centres undefined), 6.01%; that for `c1ccc(-c2nc3c(c(NCCn4cccc4)n2)CCNCC3)nc1`, -14.1%.
As for `CCCc1noc(CN2CCCCC2Cn2cncn2)n1` (centres undefined), the figure is -7.74%; as for `O=C(CC1CC1)N1CCn2cc(Cn3cccn3)nc2C1`, -15.8%; as for `Cc1noc(C)c1CNC(=O)C1(NS(C)(=O)=O)CCCCC1`, -5.85%.
The result for `Cc1ccc2oc(C(=O)N3CCCC(n4nc(C)nc4C)C3)cc2n1` (centres undefined) reads -9.11%; that for `Cc1cccc(CN2CCC3(CC2)NC(=O)CC3c2ccccc2)n1` (centres undefined), -7.81%; that for `CC1CN(CC(=O)Nc2ccncc2)CCN1c1nccs1` (centres undefined), -2.52%.
Regarding `O=C(NCc1ccc(-n2cncn2)nc1)c1ccc2c(c1)CCC2`, the cytotoxicity at 70.5 h turned out to be 0.85%.
The result for `Cc1nc(CN2CCC3(CCN(c4cnn(C)c4)C3=O)C2)cs1` (centres undefined) reads -14.5%; that for `CC(C)C(NC(=O)N1CCS(=O)(=O)CC1)c1ccccc1Cl` (centres undefined), -5.93%; that for `CCc1nnc2n1CCN(C(=O)c1ccc3nc(C)c(C)nc3c1)C2`, 1.25%.
Regarding `O=C1CCC(C(=O)NCCOc2ccccc2-c2ccccc2)CN1` (centres undefined), the cytotoxicity at 70.5 h is -13.3%.
As for `Cc1cc(C)c(CNC(=O)NCCNc2ccccn2)c(=O)[nH]1`, the figure is -9.53%; as for `CC(C)c1nc(CNC2CCN(C(=O)OC(C)(C)C)CC2)cs1`, -8.72%.
The result for `Cc1ccccc1CNCc1cc(Cl)ccc1O` reads -11.5%.
The result for `Cn1c(Cn2ccnc2)nnc1C1CCCN(C2CCCCC2)C1` (centres undefined) reads -9.84%.
Turning to `Cc1nnc(N2CCc3cncnc3C2)c(C#N)c1C`, the cytotoxicity at 70.5 h was -4.76%.
As for `CC(=O)NC[C@]1(O)CCN(C(=O)c2ccc(F)c(Cl)c2)C[C@H]1O`, the figure is -6.22%.
As for `CCCN1CCC(Cc2noc(-c3ncccc3C)n2)CC1`, the figure is -5.81%; as for `Cc1cc(-c2ccccc2C(=O)O)nc(C2CCCN(C(C)C)C2)n1` (centres undefined), -3.8%.
As for `Cc1ncsc1CCN1CCC(N(C)Cc2ncc(C(C)C)o2)C1` (centres undefined), the figure is 38.4%.
As for `CC(C)(C)n1ncc2c1NC(=O)CSC2c1ccc2c(c1)OCCO2` (centres undefined), the cytotoxicity at 70.5 h was -13%.
Take `Nc1nnc(SCC(=O)NCC(O)c2ccccc2)s1` (centres undefined): the cytotoxicity at 70.5 h amounted to 18.6%.
The result for `CCc1ccc2c(c1)C(CCNC(=O)CCc1ccsc1)C(=O)N2` (centres undefined) reads -2.26%.
The result for `CC(CC(=O)N1CCCN(Cc2cscn2)CC1)n1cccc1` (centres undefined) reads -6.05%.
The result for `O=C(Cc1cccnc1)N1C[C@@H]2CC[C@H](C1)N(Cc1ccccc1)C2=O` reads -7.37%.
Regarding `Cc1nc(C(=O)N(C)C2CC(=O)N(Cc3ccccc3)C2=O)cs1` (centres undefined), the cytotoxicity at 70.5 h was -5.65%.
The result for `CC(CNc1cncc(-n2cccn2)n1)N(C)c1ccccc1` (centres undefined) reads 1.39%.
Consider `O=C(Cn1c(=O)oc2ccccc21)N1Cc2cnn(CCO)c2C1`, for which the cytotoxicity at 70.5 h was -2.5%.
For `CN1CCCC1CNC(=O)CCCOc1ccc(Br)cc1` (centres undefined), the cytotoxicity at 70.5 h was -3.72%.
As for `O=C(C[C@@H]1COC[C@H]2CN(CC3CCOCC3)C[C@@H]12)N1CCCCO1`, the figure is -8.58%; as for `CC1=C[C@@H](CC#N)[C@H](C(C)C)C[C@H]1CC(=O)N1CCN(C)CC1`, 13.1%; as for `O=c1[nH]c2c(c(=O)n1C1CCCCC1)CCC2NCCc1ccccc1` (centres undefined), -17.4%.
As for `CCN1CCN2CCCN(S(=O)(=O)c3cccc(F)c3)C2C1=O` (centres undefined), the figure is -8.84%; as for `Cc1cc(OCC(=O)N2CCCC(c3noc(C(C)C)n3)C2)no1` (centres undefined), -1.68%; as for `Cc1ccc(C(=O)N2C[C@H](N3CCOCC3)[C@@H]3OCCC[C@@H]32)cn1`, -9.11%.
The result for `Cc1cc(C)n(CC(=O)N2CCC(c3cc4cccnc4[nH]3)CC2)n1` reads 29.7%; that for `N#Cc1cccc(CS(=O)(=O)NCCC(O)c2ccccc2)c1` (centres undefined), -10%.
Take `CC(C)Nc1oc(-c2ccc(S(=O)(=O)N(C)C)o2)nc1C#N`: the cytotoxicity at 70.5 h was -8.63%.
The result for `CCCn1ncc(-c2ccnc(N[C@@H]3C[C@@H]4CC[C@H]3C4)n2)c1C` reads -2.1%.
Turning to `CCS(=O)(=O)CC(=O)NC(c1ccccc1)C1CCCC1` (centres undefined), the cytotoxicity at 70.5 h is 0.476%.
The result for `CC(C)c1cnc(CN2CCCC(c3cc(C(N)=O)[nH]n3)C2)o1` (centres undefined) reads 2.28%; that for `COc1c(CNC(C)C(=O)NC2CCCC2)c(C(C)C)nn1C` (centres undefined), -6.92%.
For the molecule `Cc1nn(C)cc1C(=O)N1CCCn2nc(CN3CC[C@H](F)C3)cc2C1`, the cytotoxicity at 70.5 h turned out to be 6.52%.
The result for `CCNC(=O)N1CCN(c2nc3ccccc3n2C)CC1` reads -3.78%; that for `Cc1ccc(O)c(C(=O)N2CCOCC2c2c(C)n[nH]c2C)c1` (centres undefined), -1.53%.
The result for `Cn1cnc(S(=O)(=O)N2CCCC2)c1Cl` reads -10.3%; that for `O=C(O)c1ccc(=O)n(CC(c2ccc(F)cc2)N2CCCCCC2)c1` (centres undefined), -7.77%.
The result for `Cc1nnc(NC(=O)NCc2ccc(OC(C)C)nc2)s1` reads 20.6%; that for `Cc1ncc(CNCC2CCC(C(N)=O)CC2)n1-c1ccccc1` (centres undefined), 11.9%.
As for `CCOc1ccc(C(=O)N2Cc3cnc(CC(C)C)nc3C2)o1`, the cytotoxicity at 70.5 h is -4.06%.
On to `O=C(CCc1ccccc1)N1CCCCC1C1OCCO1` (centres undefined), for which the cytotoxicity at 70.5 h is -3.98%.
As for `Cc1cccnc1C(Cc1ccsc1)NCc1cnc(N(C)C)nc1` (centres undefined), the figure is -8.31%; as for `COCCN(Cc1ccc(C)o1)C(=O)Nc1nnc(C(F)F)s1`, -7.33%.
As for `CC(NC(=O)NCC1(c2ccc(F)cc2)CCC1)c1nncn1C` (centres undefined), the figure is -16.8%; as for `CC(=O)NCCNC(=O)Nc1ccc(Br)cc1C(C)C`, 15.2%; as for `Cc1c(CNCc2nn(-c3ccccc3)c3c2CCC3)cc(C#N)n1C`, 4.96%.
The result for `COc1ncc(C(=O)N(Cc2cnn(C)c2)C(C)C)cn1` reads -7.11%; that for `CC(CNC(=O)c1ccc(Cl)cc1F)N1CCCC1` (centres undefined), -16.4%.
As to `COc1ccc(OC)c(C2CCN(c3ccc4cc[nH]c4n3)C2)c1` (centres undefined), the cytotoxicity at 70.5 h is -6.46%.
As for `Cc1ccc(S(=O)(=O)NCCOc2ccc3nnc(C)n3n2)s1`, the figure is -14.5%; as for `Cn1cnnc1SCC(=O)N1C[C@H]2CC[C@@H]1CN(Cc1cccnc1)C2`, -3.64%.
Consider `CN1CCC(N(C)C[C@H]2CC[C@@H](Cc3cccc(O)c3)O2)CC1`, for which the cytotoxicity at 70.5 h came out at 43.7%.
As for `CCCNC(=O)CNc1cc(C#N)ccc1OCC`, the figure is 14.1%; as for `CCc1nc(C2CCCN(C(=O)c3c[nH]c(C(C)C)n3)C2)no1` (centres undefined), -10.9%; as for `CCN1CCN(C)C(=O)C12CCN(Cc1cccc(C)c1)CC2`, 2.19%.
Regarding `O=C([C@@H]1COC[C@H]2CN(c3ccncn3)C[C@H]21)N1CCCCO1`, the cytotoxicity at 70.5 h was -6.51%.
The result for `CN(Cc1nccn1C)c1ccc(-c2nccn2C)nn1` reads 18.2%; that for `COc1cccc(CN2CCCC3(CCN(C(=O)N4CCCC4)C3)C2)c1` (centres undefined), -7.71%.
As for `C[C@@H]1CN2C[C@H](O)CC2CN1Cc1ccncc1` (some centres undefined), the cytotoxicity at 70.5 h is -3.16%.
The result for `Cn1ncc2c1C(COCC1CC1)N(Cc1ccoc1)CC2` (centres undefined) reads -19.6%.
As for `Cc1ccc(N2CCC3(CC2)CCN(C2CCOCC2)CC3)nn1`, the cytotoxicity at 70.5 h is -2.19%.
The result for `CCN1CCC(NC(=O)CN2CCCC2Cn2nc(C)nc2C)CC1` (centres undefined) reads 3.87%.
As for `CC(C)(C)c1csc(CCNC(=O)[C@H](c2ccccc2)n2cnnn2)n1`, the cytotoxicity at 70.5 h was -5.57%.
As to `Cc1noc(C)c1CN(C)Cc1nc(N)c2ccccc2n1`, the cytotoxicity at 70.5 h stood at 13.8%.
Regarding `CCC(C(=O)N(C)CCC1=CCN(C)CC1)c1ccccc1` (centres undefined), the cytotoxicity at 70.5 h came out at 57.9%.
`Cc1csc2c(C3CCCN(C(=O)CCn4cncn4)C3)nc(C)n12` (centres undefined): the cytotoxicity at 70.5 h is 1.05%.
On to `CCOc1cc(CNC(C)c2ccc(F)cc2)ccn1` (centres undefined), for which the cytotoxicity at 70.5 h was 26.8%.
As for `COc1ccc(C(CO)NC(=O)Nc2cccnc2)cc1` (centres undefined), the cytotoxicity at 70.5 h is 12.6%.
For `CCc1[nH]ncc1C(=O)N1CCN(c2nc(C)cc(OC)n2)CC1`, the cytotoxicity at 70.5 h was -4.16%.
In the case of `Cc1nc(CN2CCOC3(CCCC3)C2)no1`, the cytotoxicity at 70.5 h is -5.91%.
The result for `O=c1c(NCCc2ccc(O)cc2)c(NCc2ccncc2)c1=O` reads -0.102%.
Turning to `Cc1cc(CN2CC[C@H]3C(=O)N(c4ccccc4)CCO[C@H]3C2)no1`, the cytotoxicity at 70.5 h was 23.6%.
As for `CC(NC(=O)Nc1cccnc1N1CCOCC1)c1ccncc1` (centres undefined), the cytotoxicity at 70.5 h worked out at 6.43%.
The result for `CC(c1nc(C2CC2)no1)N(C)Cc1ccc2c(c1)OCCO2` (centres undefined) reads -0.549%; that for `CCn1c(C)nnc1SCCNc1cc(COC)ncn1`, -22.7%.
The result for `CC(=O)NCCCSC1CCN(c2ccccc2F)C1=O` (centres undefined) reads -11.5%; that for `Cc1nn(C)cc1CN1CCCC(n2c(=O)oc3ccccc32)C1` (centres undefined), 0.702%; that for `CC(O)CN1CCC(CNCc2ccccc2OC(F)(F)F)CC1` (centres undefined), 2.51%.
